According to US20250250230A1, “HETEROCYCLIC COMPOUND” (TAKEDA PHARMACEUTICAL COMPANY LIMITED, priority 2022, published 2025):

biological target: T1, human orexin type 2 receptor (Homo sapiens, UniProt O43614); test: Measurement of orexin type 2 receptor agonist activity (calcium fluorescence, Fluo-4 AM, FDSS); type: cell-based; settings: test compound 3 μM; CHO cells expressing human OX2 receptor; DMSO = 0%, orexin A (human) = 100%
T1 construct: expressed in transfected cells
T1 sequence (O43614 1-444): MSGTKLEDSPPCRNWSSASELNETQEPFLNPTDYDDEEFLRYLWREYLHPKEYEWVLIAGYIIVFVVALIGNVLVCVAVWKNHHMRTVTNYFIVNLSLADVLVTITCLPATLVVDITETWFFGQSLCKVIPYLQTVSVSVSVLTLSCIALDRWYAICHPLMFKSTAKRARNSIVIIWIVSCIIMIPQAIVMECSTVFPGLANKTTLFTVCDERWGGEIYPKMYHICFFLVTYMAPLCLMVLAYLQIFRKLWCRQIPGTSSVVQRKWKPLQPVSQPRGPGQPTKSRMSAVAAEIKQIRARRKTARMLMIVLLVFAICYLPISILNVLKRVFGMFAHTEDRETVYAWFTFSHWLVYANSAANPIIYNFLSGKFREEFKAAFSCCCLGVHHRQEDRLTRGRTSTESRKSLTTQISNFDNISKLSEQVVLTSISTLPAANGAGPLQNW
From the text: To obtain a cell clone stably expressing human orexin type 2 receptor, human orexin type 2 receptor cDNA was inserted into pcDNA3.1(+) plasmid vector (Invitrogen), and a plasmid DNA for expression of human orexin type 2 receptor (pcDNA3.1(+)/hOX2R) was cloned. The plasmid DNA was introduced into CHO-K1 cell by an electroporation method, and human orexin type 2 receptor expressing clone cells were obtained by limiting dilution method by using G418 drug resistance as a selection marker.
CHO cells forcibly expressing human OX2 receptor were seeded in each well of 384 well black transparent bottom plate (BD Falcon) at 10,000 cells/well, and cultured for one day in a 5% CO2 incubator at 37° C. After removal of the medium in the cell plate, assay buffer A containing a calcium indicator (HBSS (Thermo Fisher Scientific), 20 mM HEPES (Thermo Fisher Scientific), 0.1% BSA (Sigma-Aldrich), 2.5 μg/mL Fluo-4 AM (DOJINDO Chemical), 0.08% Pluronic F127 (DOJINDO Chemical), 1.25 mM probenecid (DOJINDO Chemical)) was added at 30 μL/well. The plate was stood for 30 min in a 5% CO2 incubator at 37° C., and further stood at room temperature for 30 min. A test compound prepared by diluting with assay buffer B (HBSS, 20 mM HEPES, 0.1% BSA) was added at 10 μL/well, and the fluorescence value was measured by FDSSμCELL (Hamamatsu Photonics K.K.) every one sec for 1 min, and thereafter every two sec for […]. The activity (%) of the test compound was calculated assuming that variation in the fluorescence value when DMSO was added instead of the test compound was 0%, and variation in the fluorescence value when orexin A (human) (PEPTIDE INSTITUTE, INC.) was added at the final concentration of 10 nM was 100%.

Going from `CC(O)[C@@H]1CN(C(=O)[C@@H]2C[C@@]2(F)c2ccccc2-c2c(F)cccc2F)[C@H]1CNS(C)(=O)=O` (mixture of isomers) [Example 404, a mixture of N-{[(2R,3R)-1-[(1S,2S)-2-(2′,6′-difluoro[1,1′-biphenyl]-2-yl)-2-fluorocyclopropane-1-carbonyl]-3-[(1R)-1-hydroxyethyl]azetidin-2-yl]methyl}methanesulfonamide and N-{[(2R,3R)-1-[(1S,2S)-2-(2′,6′-difluoro[1,1′-biphenyl]-2-yl)-2-fluorocyclopropane-1-carbonyl]-3-[(1S)-1-hydroxyethyl]azetidin-2-yl]methyl}methanesulfonamide] to `Cc1nnc(C2(NS(C)(=O)=O)CCN(C(=O)[C@@H]3C[C@@]3(F)c3ccccc3-c3c(F)cccc3F)C2)o1` (mixture of isomers) [Example 422, a mixture of N-[(3R)-1-[(1S,2S)-2-(2′,6′-difluoro[1,1′-biphenyl]-2-yl)-2-fluorocyclopropane-1-carbonyl]-3-(5-methyl-1,3,4-oxadiazol-2-yl)pyrrolidin-3-yl]methanesulfonamide and N-[(3S)-1-[(1S,2S)-2-(2′,6′-difluoro[1,1′-biphenyl]-2-yl)-2-fluorocyclopropane-1-carbonyl]-3-(5-methyl-1,3,4-oxadiazol-2-yl)pyrrolidin-3-yl]methanesulfonamide], the “OX2R agonist activity (3 μM, %)” value falls from 95% to 75%.

Going from `Cc1noc(C2(NS(C)(=O)=O)CCN(C(=O)[C@@H]3C[C@@]3(F)c3ccccc3-c3c(F)cccc3F)C2)n1` (mixture of isomers) [Example 421, a mixture of N-[(3R)-1-[(1S,2S)-2-(2′,6′-difluoro[1,1′-biphenyl]-2-yl)-2-fluorocyclopropane-1-carbonyl]-3-(3-methyl-1,2,4-oxadiazol-5-yl)pyrrolidin-3-yl]methanesulfonamide and N-[(3S)-1-[(1S,2S)-2-(2′,6′-difluoro[1,1′-biphenyl]-2-yl)-2-fluorocyclopropane-1-carbonyl]-3-(3-methyl-1,2,4-oxadiazol-5-yl)pyrrolidin-3-yl]methanesulfonamide] to `CS(=O)(=O)NC1CCN(C(=O)C2CC2c2ccccc2-c2c(F)cccc2F)C1` (racemic) [Example 4, a mixture of rac-N-{(3R)-1-[(1R,2R)-2-(2′,6′-difluoro[1,1′-biphenyl]-2-yl)cyclopropane-1-carbonyl]pyrrolidin-3-yl}methanesulfonamide and rac-N-{(3S)-1-[(1R,2R)-2-(2′,6′-difluoro[1,1′-biphenyl]-2-yl)cyclopropane-1-carbonyl]pyrrolidin-3-yl}methanesulfonamide], the “OX2R agonist activity (3 μM, %)” value rises from 88% to 102%.

Going from `Cc1cccc(F)c1-c1ccccc1C1CC1C(=O)N1CCC(NS(C)(=O)=O)C1` (racemic) [Example 3, a mixture of rac-N-{(3R)-1-[(1R,2R)-2-(2′-fluoro-6′-methyl[1,1′-biphenyl]-2-yl)cyclopropane-1-carbonyl]pyrrolidin-3-yl}methanesulfonamide and rac-N-{(3S)-1-[(1R,2R)-2-(2′-fluoro-6′-methyl[1,1′-biphenyl]-2-yl)cyclopropane-1-carbonyl]pyrrolidin-3-yl}methanesulfonamide] to `CS(=O)(=O)NC1CCN(C(=O)C2CC2c2ccccc2-c2c(F)cccc2Cl)C1` (racemic) [Example 15, a mixture of rac-N-{(3R)-1-[(1R,2R)-2-(2′-chloro-6′-fluoro[1,1′-biphenyl]-2-yl)cyclopropane-1-carbonyl]pyrrolidin-3-yl}methanesulfonamide and rac-N-{(3S)-1-[(1R,2R)-2-(2′-chloro-6′-fluoro[1,1′-biphenyl]-2-yl)cyclopropane-1-carbonyl]pyrrolidin-3-yl}methanesulfonamide], the “OX2R agonist activity (3 μM, %)” value rises from 81% to 92%.

First: CS(=O)(=O)NC1CCN(C(=O)C2CC2c2ccccc2-c2ccc(F)cc2F)C1 (racemic) [Example 10, a mixture of rac-N-{(3R)-1-[(1R,2R)-2-(2′,4′-difluoro[1,1′-biphenyl]-2-yl)cyclopropane-1-carbonyl]pyrrolidin-3-yl}methanesulfonamide and rac-N-{(3S)-1-[(1R,2R)-2-(2′,4′-difluoro[1,1′-biphenyl]-2-yl)cyclopropane-1-carbonyl]pyrrolidin-3-yl}methanesulfonamide]
Second: CS(=O)(=O)NC1CCN(C(=O)C2CC2c2ccccc2-c2ccccc2F)C1 (racemic) [Example 12, a mixture of rac-N-{(3R)-1-[(1R,2R)-2-(2′-fluoro[1,1′-biphenyl]-2-yl)cyclopropane-1-carbonyl]pyrrolidin-3-yl}methanesulfonamide and rac-N-{(3S)-1-[(1R,2R)-2-(2′-fluoro[1,1′-biphenyl]-2-yl)cyclopropane-1-carbonyl]pyrrolidin-3-yl}methanesulfonamide]
The “OX2R agonist activity (3 μM, %)” value of the first is higher: 80% for the first, 66% for the second.

Going from `CS(=O)(=O)NC1CCN(C(=O)C2CC2c2c(F)cccc2-c2c(F)cccc2F)C1` (racemic) [Example 26, a mixture of rac-N-{(3R)-1-[(1R,2R)-2-(2′,3,6′-trifluoro[1,1′-biphenyl]-2-yl)cyclopropane-1-carbonyl]pyrrolidin-3-yl}methanesulfonamide and rac-N-{(3S)-1-[(1R,2R)-2-(2′,3,6′-trifluoro[1,1′-biphenyl]-2-yl)cyclopropane-1-carbonyl]pyrrolidin-3-yl}methanesulfonamide] to `CS(=O)(=O)NC1CCCN(C(=O)C2CC2c2c(F)cccc2-c2c(F)cccc2F)C1` (racemic) [Example 31, a mixture of rac-N-{(3R)-1-[(1R,2R)-2-(2′,3,6′-trifluoro[1,1′-biphenyl]-2-yl)cyclopropane-1-carbonyl]piperidin-3-yl}methanesulfonamide and rac-N-{(3S)-1-[(1R,2R)-2-(2′,3,6′-trifluoro[1,1′-biphenyl]-2-yl)cyclopropane-1-carbonyl]piperidin-3-yl}methanesulfonamide], the “OX2R agonist activity (3 μM, %)” value falls from 104% to 101%.

First: CCS(=O)(=O)NC1CCN(C(=O)C2CC2c2ccccc2-c2c(F)cccc2F)C1 (racemic) [Example 27, a mixture of rac-N-{(3R)-1-[(1R,2R)-2-(2′,6′-difluoro[1,1′-biphenyl]-2-yl)cyclopropane-1-carbonyl]pyrrolidin-3-yl}ethanesulfonamide and rac-N-{(3S)-1-[(1R,2R)-2-(2′,6′-difluoro[1,1′-biphenyl]-2-yl)cyclopropane-1-carbonyl]pyrrolidin-3-yl}ethanesulfonamide]
Second: CCS(=O)(=O)NC1CCCN(C(=O)C2CC2c2ccccc2-c2c(F)cccc2F)C1 (racemic) [Example 28, a mixture of rac-N-{(3R)-1-[(1R,2R)-2-(2′,6′-difluoro[1,1′-biphenyl]-2-yl)cyclopropane-1-carbonyl]piperidin-3-yl}ethanesulfonamide and rac-N-{(3S)-1-[(1R,2R)-2-(2′,6′-difluoro[1,1′-biphenyl]-2-yl)cyclopropane-1-carbonyl]piperidin-3-yl}ethanesulfonamide]
The “OX2R agonist activity (3 μM, %)” value of the first is lower: 98% for the first, 103% for the second.

Compared with `CS(=O)(=O)NC1CCCN(C(=O)C2CC2c2c(F)cccc2-c2c(F)cccc2F)CC1` (racemic) [Example 32, a mixture of rac-N-{(4R)-1-[(1R,2R)-2-(2′,3,6′-trifluoro[1,1′-biphenyl]-2-yl)cyclopropane-1-carbonyl]azepan-4-yl}methanesulfonamide and rac-N-{(4S)-1-[(1R,2R)-2-(2′,3,6′-trifluoro[1,1′-biphenyl]-2-yl)cyclopropane-1-carbonyl]azepan-4-yl}methanesulfonamide], `O=C(C1CC1c1ccccc1-c1c(F)cccc1F)N1CCC(NS(=O)(=O)C2CC2)C1` (racemic) [Example 37, a mixture of rac-N-{(3R)-1-[(1R,2R)-2-(2′,6′-difluoro[1,1′-biphenyl]-2-yl)cyclopropane-1-carbonyl]pyrrolidin-3-yl}cyclopropanesulfonamide and rac-N-{(3S)-1-[(1R,2R)-2-(2′,6′-difluoro[1,1′-biphenyl]-2-yl)cyclopropane-1-carbonyl]pyrrolidin-3-yl}cyclopropanesulfonamide] is lower in “OX2R agonist activity (3 μM, %)” value: 102% for the first, 101% for the second.
